Measurements taken from US11400106B2, “Methods for inhibiting microbe growth” (priority 2018, dated 2022).
In brackets after ≈: the same amount, converted by molar mass. Read-outs that look alike come from different tables or passages of the source. Values belong to the compound of their own block, whether it stands above or below them.

How the values were obtained:
[1] = system: MRSA; assay: Time kill curve; type: cell-based, Staphylococcus aureus; conditions: 256 μg/mL azithromycin, 50 mM bicarbonate, 4 hours
Protocol: Experiments to measure the effect of bicarbonate on bactericidal activity of azithromycin were completed according to a Clinical & Laboratory Standards Institute (CLSI) protocol. Briefly, the various treatments were added to logarithmic-phase culture of MRSA in CA-MHB at the concentrations indicated in FIG. 39 and incubated at 37° C. At time points indicated in FIG. 39, cell suspensions were 10-fold serially diluted using sterile PBS buffer and spread on plates of MHB agar. Bacterial colonies were counted after cultivation at 37° C. for 24 hours.

[2] = system: P. aeruginosa CA1216; assay: Mouse model of skin infection, neutropenic Balb/c mice; type: in vivo, Pseudomonas aeruginosa; conditions: topical 200 μg/mL azithromycin with 40 mM sodium bicarbonate, 25 hours post-infection
Protocol: The effect of bicarbonate on antimicrobial activity of azithromycin against P. aeruginosa was tested in a mouse model of skin infection. Balb/c mice (6-8 weeks old, female) were rendered neutropenic. Mice were treated with cyclophosphamide on day −4 (150 mg/kg) and day −1 (100 mg/kg). The following compositions were prepared: (1) Vehicle: 5 mg/mL MC, 1% DMSO; […] A 10 mg/mL methylcellulose (MC) solution was made from methylcellulose 4000 cp. 100 mL of sterile water was heated in a microwave for 30 seconds prior to adding to MC to improve solubility. The composition was shaken on a vortex for ˜20 min to completely dissolve. The compositions for mouse treatments were prepared as follows: (1) Vehicle: 980 μL sterile water, 20 μL, DMSO, 1 mL MC (10 mg/mL); […] Each composition was vortexed after preparation. […] The inoculum was diluted and plated on LB to quantify colony-forming units (CFU). The mice were weighed. Buprenorphine IP (0.025 mg/kg) was administered as an analgesic. To anaesthetize the mice, isoflurane (gaseous anesthetic) was administered. […] The fur was stripped from the back of the neck using autoclave tape. An area of ˜2 cm^2 was tape stripped by applying and removing the tape 25-30 times. […] Mice were placed into a recovery cage and monitored until the righting reflex returned. Mice were singly housed and monitored after infection. […]

[3] = system: S. pneumoniae; assay: Susceptibility testing of conjunctival isolates of S. pneumoniae; type: cell-based; conditions: Streptococcus pneumoniae, bicarbonate as in label
Protocol: (§1) This study included one hundred (n=100) clinical isolates of methicillin-resistant Staphylococcus aureus (MRSA) and ninety-two (n=92) clinical isolates of P. aeruginosa. All samples were collected from patients at Hamilton Health Sciences hospitals (Hamilton, Ontario, Canada). Isolates, regardless of site of infection, were selected for study if they were resistant to three or more antibiotics. The isolates were cultured on plates and subsequently tested for antimicrobial susceptibility. Initial culture and antibiotic susceptibility testing were performed by Hamilton General Hospital General Microbiology Laboratory using a VITEK 2 Automated System and its Advanced Expert System (bioMerieux) and were compliant with Clinical & Laboratory Standards Institute (CLSI) antibiotic susceptibility testing formulations. Both quantitative minimum inhibitory concentration (MIC) and CLSI breakpoints were reported for each antibiotic. Additionally, a total of 7 conjunctival-sourced ocular isolates of Streptococcus pneumoniae collected by the International Health Management Associates (IHMA) from various locations in the United States were used in the study.
Antimicrobial sensitivity of the pathogenic strains was determined in compliance with the CLSI protocol. […] Plates were incubated for 18 hours at 37° C. and read at 600 nm on a Tecan, infinite M1000 PRO plate reader. […]

[4] = system: MRSA; assay: Checkerboard azithromycin and sodium bicarbonate against MRSA; type: cell-based, Staphylococcus aureus
Protocol: (§2) Standard checkerboard broth microdilution assays were set-up in 96-well microtiter plates with serially diluted 8 (or 10) concentrations of each drug (or bicarbonate), using the conditions based on CLSI guidelines, as noted above. All checkerboards were conducted in duplicate.
(§3) To assess the dose-dependence of the interaction of azithromycin and bicarbonate, standard microbroth checkerboard techniques in MRSA and P. aeruginosa were used. For both pathogens, enhancement of the activity of azithromycin was further pronounced with increasing concentrations of sodium bicarbonate, as shown in FIG. 34A and FIG. 34B, respectively. This is consistent in various different isolates of the pathogens. Evident within these checkerboards is the inherent resistance of MRSA and P. aeruginosa to azithromycin in the absence of bicarbonate, where >64 μg/mL of azithromycin was required to inhibit growth to less than 10% growth.

[5] = system: macrolide-resistant strain of MRSA; assay: Cellular accumulation of azithromycin by LC-MS/MS; type: cell-based, Staphylococcus aureus; conditions: azithromycin 512 μg/mL, 10 minutes contact
Protocol: A method to measure azithromycin accumulation into a macrolide-resistant strain of MRSA was adapted from a protocol described in Richter et al., Nature 545, pp. 299-304 (2017). Liquid chromatography with tandem mass spectroscopy (LC-MS/MS) was used to quantify accumulation of azithromycin in the absence or presence of 50 mM sodium bicarbonate. Azithromycin was used at 512 μg/mL (because the strain is macrolide-resistant). The azithromycin (in the absence or presence of bicarbonate) was in contact with the MRSA for 10 minutes.

[6] = system: P. aeruginosa; assay: Checkerboard azithromycin and sodium bicarbonate against P. aeruginosa; type: cell-based, Pseudomonas aeruginosa
Protocol: as §2, §3

[7] = system: methicillin-resistant Staphylococcus aureus (MRSA); assay: Susceptibility testing of MRSA clinical isolates (n=100); type: cell-based; conditions: for MIC50 / MIC90 / MIC: Staphylococcus aureus, MRSA
Protocol: as §1
(§4) Antimicrobial sensitivity of the pathogenic strains was determined in compliance with the CLSI protocol. Mueller-Hinton agar plates were used to streak out bacterial species and the direct colony suspension method for inoculum preparation was used to make a suspension of the organism in saline to the density of a McFarland 0.5 turbidity standard. Cation-adjusted Mueller-Hinton broth (CA-MHB) manufactured according to ISO technical standard was used for susceptibility testing in standard 96-well microdilution plates. All antibiotics were purchased as powders from Sigma-Aldrich Canada Co. (Oakville, Canada) and dissolved in appropriate solvent to provide stock solutions as instructed by the manufacturer. Desired test antibiotic solutions were diluted in solvent at a highest test concentration resulting in 256 μg/mL. Where sodium bicarbonate was used, aqueous sterile-filtered sodium bicarbonate solution (7.5% stock) from Sigma-Aldrich Canada Co. (Oakville, Canada) was diluted to the desired concentration in CAMHB. Plates were incubated for 18 hours at 37° C. and read at 600 nm on a Tecan, infinite M1000 PRO plate reader. In accordance with CLSI, methods with appropriate medium supplements for fastidious streptococci (2.5% lysed horse blood, Innovative Research, Inc., Novi, Mich.) were used. […] All MICs in the study were conducted in duplicate.

[8] = system: P. aeruginosa; assay: Susceptibility testing of P. aeruginosa clinical isolates (n=92); type: cell-based, Pseudomonas aeruginosa; conditions: Pseudomonas aeruginosa, P. aeruginosa, n = 92 isolates, bicarbonate as in label
Protocol: as §1, §4

[9] = system: S. aureus; conditions: S. aureus grown with 25 mM sodium bicarbonate vs untreated
Protocol: (§5) In the following experiments, bacterial cells were cultured in 96-well microtiter plates in cation-adjusted Mueller-Hinton Broth (MHB) for 18 h at 37° C. The main strains used were E. coli (K-12 BW25113) (placed in stationary incubator) and S. aureus (Newman Strain) (incubated at 250 r.p.m). Knockout strains (ΔtolcC and ΔychM) were used from the Keio knockout collection (Baba et al., Construction of Escherichia coli K-12 in-frame, single-gene knockout mutants: the Keio collection. Mol Syst Biol 2, 2006 0008, doi:10.1038/msb4100050 (2006)). For MIC determination and checkerboard analyses, Clinical & Laboratory Standards Institute (CLSI) protocol was used. […] DiSC3 loading of S. aureus cells was performed as previously described (Farha et al., Collapsing the proton motive force to identify synergistic combinations against Staphylococcus aureus. Chemistry & biology 20, 1168-1178, doi:10.1016/j.chembiol.2013.07.006 (2013)). CCCP concentration of 20 μM was used. pH adjustments were made by addition of HCl or NaOH. INT assay and ATP bioluminescence assays were performed as previously described (Farha et al., Collapsing the proton motive force to identify synergistic combinations against Staphylococcus aureus. Chemistry & biology 20, 1168-1178, doi:10.1016/j.chembiol.2013.07.006 (2013)). For chemical-genomic studies, the Keio library was grown overnight in cation-adjusted MHB broth, in 384-well plates. From these, treatment plates (25 mM sodium bicarbonate, or a sterile water control) were inoculated and grown for 15 hours at 37° C., in a stationary incubator. Data was normalized according to Mangat et al (Mangat et al., Rank ordering plate data facilitates data visualization and normalization in high-throughput screening. J Biomol Screen 19, 1314-1320, doi:10.1177/1087057114534298 (2014)), with gene products and GO terms mined from EcoCyc. The GFP promoter library (Keseler et al., EcoCyc: fusing model organism databases with systems biology. Nucleic Acids Res 41, D605-612, doi:10.1093/nar/gks1027 (2013)) was grown for 18 hours at ambient temperature with the same inoculation strategy as with the Keio collection. The analysis pipeline of Zaslaver et al (Zaslaver et al., A comprehensive library of fluorescent transcriptional reporters for Escherichia coli. Nat Methods 3, 623-628, doi:10.1038/nmeth895 (2006)) was used to generate maps of promoter activity, from which lists of promoters with increased or decreased activity were compiled.

[10] = system: E. coli; conditions: 25 mM sodium bicarbonate
Protocol: as §5

[11] = system: Enterococcus faecium
Protocol: as §5

[12] = system: Acinetobacter baumannii; assay: MIC determination against Acinetobacter baumannii; type: cell-based; conditions: Acinetobacter baumannii
Protocol: as §5

[13] = system: S. aureus; conditions: 25 mM sodium bicarbonate, BCECF-AM
Protocol: S. aureus cells were loaded with the pH sensitive dye BCECF-AM and were washed and resuspended in PBS. Following baseline readings, PBS (grey circles) or 25 mM sodium bicarbonate (black circles) were added at the arrow and fluorescence measured over time. A standard curve for intracellular pH calibration was used to calculate intracellular pH.

[14] = system: Klebsiella pneumoniae; assay: MIC determination against Klebsiella pneumoniae; type: cell-based
Protocol: as §5, with “The GFP promoter library (Keseler et al., EcoCyc: fusing model organism databases with systems biology. Nucleic Acids Res 41, D605-612, doi:10.1093/nar/gks1027 (2013)) was grown for 18 hours at ambient temperature with the same inoculation strategy as with the Keio collection. The analysis pipeline of Zaslaver et al (Zaslaver et al., A comprehensive library of fluorescent transcriptional reporters for Escherichia coli. Nat Methods 3, 623-628, doi:10.1038/nmeth895 (2006)) was used to generate maps of promoter activity, from which lists of promoters with increased or decreased activity were compiled.” left out

[15] = system: S. aureus; assay: FIC index of pentamidine combined with various salts (checkerboard); type: cell-based, Staphylococcus aureus; conditions: combination of pentamidine isethionate with each salt; FICI≤0.5 synergy, 1-2 additivity, >4 antagonism
Protocol: as §5

[16] = system: S. aureus; assay: microbe, parasite or virus in culture; conditions: Staphylococcus aureus
[17] = system: E. coli; assay: microbe, parasite or virus in culture; type: cell-based, Escherichia coli
[18] = system: Pseudomonas aeruginosa; assay: MIC determination against Pseudomonas aeruginosa; type: cell-based
Protocol: as §5, with “The GFP promoter library (Keseler et al., EcoCyc: fusing model organism databases with systems biology. Nucleic Acids Res 41, D605-612, doi:10.1093/nar/gks1027 (2013)) was grown for 18 hours at ambient temperature with the same inoculation strategy as with the Keio collection. The analysis pipeline of Zaslaver et al (Zaslaver et al., A comprehensive library of fluorescent transcriptional reporters for Escherichia coli. Nat Methods 3, 623-628, doi:10.1038/nmeth895 (2006)) was used to generate maps of promoter activity, from which lists of promoters with increased or decreased activity were compiled.” left out

[19] = increasing concentrations of sodium bicarbonate
[20] = MRSA isolates, in the presence of 50 mM bicarbonate
[21] = n = 100 isolates, bicarbonate as in label

MIC ([3]; macrolide-resistant S. pneumoniae strain, read-out: MIC, #1186268 (R)): 32 µg/mL (≈ 42.7 µM)
MIC ([3]; macrolide-susceptible S. pneumoniae strain, read-out: MIC, #1173373 (S)): 0.25 µg/mL (≈ 0.334 µM)
MIC50 [7, 20]: 1 µg/mL
MIC90 [7, 20]: 2 µg/mL
MIC50 [7, 21]: 128 µg/mL (≈ 171 µM)
MIC90 [7, 21]: > 256 µg/mL
MIC ([7]; n = 100 isolates, bicarbonate as in label, read-out: Maximum MIC obtained): > 256 µg/mL
MIC ([7]; n = 100 isolates, bicarbonate as in label, read-out: Minimum MIC obtained): 1 µg/mL (≈ 1.34 µM)
MIC50 [8]: 64 µg/mL (≈ 85.4 µM)
MIC90 [8]: 256 µg/mL (≈ 342 µM)
MIC ([8]; read-out: Maximum MIC obtained): > 256 µg/mL
MIC ([8]; read-out: Minimum MIC obtained): 0.5 µg/mL (≈ 0.668 µM)
Structure (SMILES): CC[C@H]1OC(=O)[C@H](C)[C@@H](O[C@H]2C[C@@](C)(OC)[C@@H](O)[C@H](C)O2)[C@H](C)[C@@H](O[C@@H]2O[C@H](C)C[C@H](N(C)C)[C@H]2O)[C@](C)(O)C[C@@H](C)CN(C)[C@H](C)[C@@H](O)[C@]1(C)O [Azithromycin]
bactericidal action in the presence vs absence of bicarbonate [1]: superior bactericidal action
effect of bicarbonate on antimicrobial activity in vivo (CFU) [2]: enhanced
concentration required to inhibit growth to less than 10% growth ([4]; in the absence of bicarbonate): > 64 µg/mL
dose-dependence of the interaction with sodium bicarbonate [4, 19]: enhancement
increase in accumulation in the presence of 50 mM bicarbonate [5]: approximately 2.5 fold
concentration required to inhibit growth to less than 10% growth ([6]; in the absence of bicarbonate): > 64 µg/mL
dose-dependence of the interaction with sodium bicarbonate [6, 19]: enhancement
eradication rate ([7]; MRSA isolates, 50 mM bicarbonate added): 90%
eradication rate ([7]; MRSA isolates, without bicarbonate): 7%

MIC [11]: 50 to 100 mM
MIC [12]: 50 mM
MIC [14]: 100 mM
MIC [16]: 50 to 100 mM
MIC of dirithromycin in the presence of the salt ([17]; E. coli, salt at 25 mM, pH adjusted to 7.4): 4 µg/mL
MIC ([17]; Escherichia coli): 100 mM
MIC [18]: >100 mM
Structure (SMILES): O=C([O-])O.[Na+] [Sodium bicarbonate]
uptake of DiSC3(5) [9]: increased uptake
reduction of intracellular ATP levels compared to untreated control [10]: ~30%
reduction of cellular respiration ([10]; INT to INT-formazan, 60 min): 70%
change in cytoplasmic pH [13]: rapid cytoplasmic alkalinization
FIC Index (with pentamidine in S. aureus) [15]: 0.31
